Measurements reported in patent publication US10259847B2, “Beta-hairpin peptidomimetics” (POLYPHOR AG, priority 2014, dated 2019).
Where a SMILES comes first, the peptide text is derived from it. [ ]: non-standard residue; d: D form. Tle = CC(C)(C)[C@H](N)C(=O)O; dDab = NCC[C@@H](N)C(=O)O; Orn = NCCC[C@H](N)C(=O)O; Dab = NCC[C@H](N)C(=O)O; Dap = NC[C@H](N)C(=O)O

How the values were obtained:
Type in all cases: cell-based
[1] = system: Acinetobacter baumannii DSM 30008; settings: DSM 30008
Summary of the method: (§1)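 Peptide MICs were determined by NCCLS broth microdilution in cation-adjusted Mueller-Hinton II broth. Inoculum was about 10^6 CFU/mL, matched to 0.5 McFarland, with peptides in two-fold serial dilutions. The broth contained Polysorbate 80 at 0.002% final concentration.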

[2] = system: Escherichia coli ATCC 25922; settings: ATCC 25922
Summary of the method: as §1

[3] = system: Klebsiella pneumoniae ATCC 13883; settings: ATCC 13883
Summary of the method: as §1

[4] = system: human red blood cells (hRBC); experiment: Hemolysis of human red blood cells; settings: red cells of human, 1 h, 100
Procedure: Stock solutions were kept at +4° C., light protected.
Percent hemolysis was calculated as follows: (OD540peptide/OD540H2O)×100%.

- Acinetobacter baumannii DSM 30008 MIC [1]: 1 µg/mL
- Escherichia coli ATCC 25922 MIC [2]: 0.5 µg/mL
- Klebsiella pneumoniae ATCC 13883 MIC [3]: 0.25 µg/mL
Structure (SMILES): C[C@@H]1NC(=O)[C@H](C(C)(C)C)NC(=O)[C@H](CCN)NC(=O)[C@H](Cc2c[nH]c3ccccc23)NC(=O)[C@H](CCN)NC(=O)[C@@H](CCN)NC(=O)[C@H](CCCN)NC(=O)[C@H](CCN)NC(=O)[C@H](Cc2ccc(O)cc2)NC(=O)[C@H](CN)NC(=O)[C@H](Cc2ccccc2)NC(=O)[C@H](Cc2ccc(O)cc2)NC(=O)[C@H]2CCCN2C(=O)[C@H](CO)NC1=O [Example 44, cyclo(-Phe-Dap-Tyr-Dab-Orn-^DDab-Dab-Trp-Dab-tBuGly-Ala-Ser-^DPro-Tyr-)] (cyclo(AS[dP]YF[Dap]Y[Dab][Orn][dDab][Dab]W[Dab][Tle]))
- Hemolysis at 100 μg/mL [4]: 0%
